In patent US10501479B2, “Benzenesulfonyl-asymmetric ureas and medical uses thereof” (HELSINN HEALTHCARE SA, priority 2016, dated 2019):
Structures can show the parent of a compound that is named as a salt. Where two headings read alike, the source gives them in different places.

Legend:
Format in all cases: cell-based
[1] = target: T1, GHSR-1a (HEK293/GHSR1a cell line) (Homo sapiens, UniProt Q92847); assay: Ghrelin antagonist potency (IC50) with calcium FLIPR assay, ghrelin 10 nM
T1 construct: expressed in transfected cells; host or cells: HEK293/GHSR1a cell line
Method in brief: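 Calcium flux was followed 2 min by FLIPR in dye-loaded HEK293/GHSR1a cells. For antagonist IC50, compound and ghrelin (10 nM) were co-added at t=20 sec and inhibition of the ghrelin signal fitted; for agonist EC50, compound alone was added at t=20 sec and dose-response fitted.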

[2] = target: T2, recombinant human ghrelin receptor (HEK293/GRLN) (Homo sapiens, UniProt Q92847); assay: Ghrelin inverse agonist potency (EC50) with IP-1 (IP-One HTRF) assay; conditions: IP-1 assay
T2 construct: expressed in transfected cells
Description: Evaluation of Ghrelin Inverse Agonist Potency (EC50) with IP-1 Assay:
HEK293 cells stably expressing recombinant human ghrelin receptor (HEK293/GRLN) were used in the IP-One HTRF assay. One day before the test, cells were seeded at a density of 1.5×10^4/well in a Matrigel® coated 384-well plate with 30 μL of complete Dulbecco's Modified Eagle's Medium and incubated at 37° C. in 5% CO2 for 18-22 hours. On the test day, the medium was removed by centrifugation at 600 rpm for 30 seconds, and 20 μL of stimulation buffer containing 1x tested compound was added with Bravo (Agilent technologies). The plate was then incubated at 37° C. 5% CO2 for 1 hour. After the incubation, 5 μL of IP1-d2 and 5 μL of Tb-Cryp were added to all wells using multidrop Combi(Thermo). After additional incubation at room temperature for 1 hour, the plates were read on Envision with 620 and 665 (Perkin Elmer).

[3] = target: T1, GHSR-1a (HEK293/GHSR1a cell line); assay: Ghrelin agonist potency (EC50) with calcium FLIPR assay; conditions: HEK293/GHSR1a, read-out: Activity EC50/EMax: EC50 (ghrelin agonist potency)
Description: Evaluation of Ghrelin Agonist (EC50) and Antagonist Potency (IC50) with Calcium FLIPR Assay:
The intracellular calcium assay was carried out in a 384-well format FLIPR™ (Molecular Device) HEK293/GHSR1a cell line. Cells were seeded 24 hr prior to the experiments at an optimal density per well. Preincubation with selected calcium dye lasted for 30-60 min at room temperature or 37° C. Test compounds, dissolved in DMSO, were added at the appropriate time and incubated for 15 min followed by the addition of ghrelin with FlexStation or FLIPR. Relative fluorescence was monitored by the FLIPR™ Molecular Device. EC50 and IC50 values were estimated from dose-response data using GraphPad Prism software. To check for GHSR-1a agonism, the compound was added at t=20 sec. and the calcium response was followed for 2 minutes. To check for GHSR-1a antagonism, the compound and Ghrelin (10 nM) were added to the cells at t=20 sec. and the calcium response was measured for 2 minutes. The potency of the antagonist was calculated by its ability to reduce the ghrelin response. Dose-response curves were made for relevant antagonists.

[4] = ghrelin antagonist potency, read-out: IC50 (Activity)
[5] = inverse agonist potency, read-out: EC50 (Activity)
[6] = HEK293/GHSR1a, ghrelin 10 nM, read-out: Activity IC50 (ghrelin antagonist potency)
[7] = ghrelin antagonist potency, read-out: Activity IC50
[8] = ghrelin inverse agonist potency, read-out: Activity EC50

T2 sequence (Q92847 whole entry): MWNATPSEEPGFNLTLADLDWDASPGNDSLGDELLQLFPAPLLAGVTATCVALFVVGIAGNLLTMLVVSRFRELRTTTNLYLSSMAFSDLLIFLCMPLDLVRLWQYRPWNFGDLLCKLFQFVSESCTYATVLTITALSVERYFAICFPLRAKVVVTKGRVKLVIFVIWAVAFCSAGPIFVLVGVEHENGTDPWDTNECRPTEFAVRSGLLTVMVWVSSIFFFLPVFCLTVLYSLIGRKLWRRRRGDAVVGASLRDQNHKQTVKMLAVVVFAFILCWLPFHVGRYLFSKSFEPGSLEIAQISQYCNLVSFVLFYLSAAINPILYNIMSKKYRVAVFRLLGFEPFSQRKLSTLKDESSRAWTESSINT
T1 sequence (Q92847 whole entry): as above

C[C@H](NC(=O)Nc1ccc(S(=O)(=O)Nc2ccc(N)nn2)cc1)c1cccc(Cl)c1Cl [H1129, (S)-N-(6-aminopyridazin-3-yl)-4-(3-(1-(2,3-dichlorophenyl)ethyl)ureido) benzenesulfonamide]
IC50 [1, 4]: 3330 nM
EC50 [2, 5]: 2460 nM

C[C@H](NC(=O)Nc1ccc(S(=O)(=O)Cc2cnc(N)nc2)cc1)c1cccc(Cl)c1Cl [H1130, (S)-1-(4-(((2-aminopyrimidin-5-yl)methyl)sulfonyl)phenyl)-3-(1-(2,3-dichlorophenyl)ethyl)urea]
IC50 [1, 4]: 3380 nM
EC50 [2, 5]: 1280 nM

CC(NC(=O)Nc1ccc(S(=O)(=O)Cc2ccc(CO)cc2)cc1)c1cccc2ccccc12 (stereo not drawn) [H1132, 1-(4-((4-(hydroxymethyl)benzyl)sulfonyl)phenyl)-3-(1-(naphthalen-1-yl)ethyl)urea]
IC50 [1, 4]: 574 nM
EC50 [2, 5]: 219 nM

CC(NC(=O)Nc1ccc(S(=O)(=O)Nc2ccc(CO)cc2)cc1)c1cccc2ccccc12 (stereo not drawn) [H1133, N-(4-(hydroxymethyl)phenyl)-4-(3-(1-(naphthalen-1-yl)ethyl)ureido) benzenesulfonamide]
IC50 [1, 4]: 419 nM
EC50 [2, 5]: 170 nM

CC(NC(=O)Nc1ccc(S(=O)(=O)Nc2ccc(CO)cc2)cc1)c1ccccc1 (stereo not drawn) [H1141, N-(4-(hydroxymethyl)phenyl)-4-(3-(1-phenylethyl)ureido) benzenesulfonamide]
IC50 [1, 4]: 2610 nM
EC50 [2, 5]: 562 nM

CC(NC(=O)Nc1ccc(S(=O)(=O)Nc2ccc3c(c2)CNC3)cc1)c1cccc2ccccc12 (stereo not drawn) [H1155, N-(isoindolin-5-yl)-4-(3-(1-(naphthalen-1-yl)ethyl)ureido) benzenesulfonamide]
IC50 [1, 4]: 4.3 nM
EC50 [2, 5]: 5.03 nM

CC(C)NC(=O)Nc1ccc(S(=O)(=O)Cc2ccc3c(c2)CNC3)cc1 [H1178, 1-(4-((isoindolin-5-ylmethyl)sulfonyl)phenyl)-3-isopropylurea]
IC50 [1, 4]: 4890 nM
EC50 [2, 5]: 1020 nM

CCNC(=O)Nc1ccc(S(=O)(=O)Cc2ccc3c(c2)CNC3)cc1 [H1180, 1-ethyl-3-(4-((isoindolin-5-ylmethyl)sulfonyl)phenyl)urea]
IC50 [1, 4]: 14700 nM
EC50 [2, 5]: 315 nM

C[C@H](NC(=O)Nc1ccc(S(=O)(=O)Cc2ccc(COS(=O)(=O)O)cc2)cc1)c1cccc(Cl)c1Cl [H1181, (S)-4-(((4-(3-(1-(2,3-dichlorophenyl)ethyl)ureido)phenyl)sulfonyl)methyl) benzyl hydrogen sulfate]
IC50 [1, 4]: 3310 nM
EC50 [2, 5]: 957 nM

O=C(Nc1ccccc1)Nc1ccc(S(=O)(=O)Cc2ccc3c(c2)CNC3)cc1 [H1190, 1-(4-((isoindolin-5-ylmethyl)sulfonyl)phenyl)-3-phenylurea]
IC50 [1, 4]: 264 nM
EC50 [2, 5]: 317 nM

COc1ccc(CNC(=O)Nc2ccc(S(=O)(=O)Cc3ccc4c(c3)CNC4)cc2)cc1 [H1203, 1-(4-((isoindolin-5-ylmethyl)sulfonyl)phenyl)-3-(4-methoxybenzyl)urea]
IC50 [1, 4]: 447 nM
EC50 [2, 5]: 161 nM

CN(Cc1ccccc1)C(=O)Nc1ccc(S(=O)(=O)Cc2ccc3c(c2)CNC3)cc1 [H1204, 1-benzyl-3-(4-((isoindolin-5-ylmethyl)sulfonyl)phenyl)-1-methylurea]
IC50 [1, 4]: 692 nM
EC50 [2, 5]: 624 nM

CC(C)(C)NC(=O)Nc1ccc(S(=O)(=O)Cc2ccc3c(c2)CNC3)cc1 [H1205, 1-(tert-butyl)-3-(4-((isoindolin-5-ylmethyl)sulfonyl)phenyl)urea]
IC50 [1, 4]: 9870 nM
EC50 [2, 5]: 5340 nM

CC(c1ccccc1)N(C)C(=O)Nc1ccc(S(=O)(=O)Cc2ccc3c(c2)CNC3)cc1 (stereo not drawn) [H1206, 3-(4-((isoindolin-5-ylmethyl)sulfonyl)phenyl)-1-methyl-1-(1-phenylethyl)urea]
IC50 [1, 4]: 262 nM
EC50 [2, 5]: 252 nM

COc1ccc(CNC(=O)Nc2ccc(S(=O)(=O)Cc3ccc4c(c3)CNC4)cc2)nc1 [H1212, 1-(4-((isoindolin-5-ylmethyl)sulfonyl)phenyl)-3-((5-methoxypyridin-2-yl)methyl)urea]
IC50 [1, 4]: 3100 nM
EC50 [2, 5]: 1780 nM

O=C(NCc1ccsc1)Nc1ccc(S(=O)(=O)Cc2ccc3c(c2)CNC3)cc1 [H1217, 1-(4-((isoindolin-5-ylmethyl)sulfonyl)phenyl)-3-(thiophen-3-ylmethyl)urea]
IC50 [1, 4]: 1450 nM
EC50 [2, 5]: 1150 nM

CN1Cc2ccc(CS(=O)(=O)c3ccc(NC(=O)NCC(C)(C)C)cc3)cc2C1 [H1228, 1-(4-(((2-methylisoindolin-5-yl)methyl)sulfonyl)phenyl)-3-neopentylurea]
IC50 [1, 4]: 766 nM
EC50 [2, 5]: 1260 nM

CC(C)C(C)NC(=O)Nc1ccc(S(=O)(=O)Cc2ccc3c(c2)CN(C)C3)cc1 (stereo not drawn) [H1229, 1-(3-methylbutan-2-yl)-3-(4-(((2-methylisoindolin-5-yl)methyl)sulfonyl)phenyl)urea]
IC50 [1, 4]: 291 nM
EC50 [2, 5]: 369 nM

CCN1Cc2ccc(C(C)(C)S(=O)(=O)c3ccc(NC(=O)NC(C)c4ccccc4)cc3)cc2C1 (stereo not drawn) [H1232, 1-(4-((2-(2-ethylisoindolin-5-yl)propan-2-yl)sulfonyl)phenyl)-3-(1-phenylethyl)urea]
IC50 [1, 4]: > 30000 nM
EC50 [2, 5]: 310 nM

CC(NC(=O)Nc1ccc(S(=O)(=O)C(C)c2ccc3c(c2)CN(Cc2ccccc2)C3)cc1)c1ccccc1 (stereo not drawn) [H1233, 1-(4-((1-(2-benzylisoindolin-5-yl)ethyl)sulfonyl)phenyl)-3-(1-phenylethyl)urea]
IC50 [1, 4]: 225 nM
EC50 [2, 5]: 170 nM

CC(C)CNC(=O)Nc1ccc(S(=O)(=O)Cc2ccc3c(c2)CN(C)C3)cc1 [H1236, 1-isobutyl-3-(4-(((2-methylisoindolin-5-yl)methyl)sulfonyl)phenyl)urea]
IC50 [1, 4]: 1640 nM
EC50 [2, 5]: 507 nM

CC(NC(=O)Nc1ccc(S(=O)(=O)Cc2ccc3c(c2)CN(C)C3)cc1)C1CC1 (stereo not drawn) [H1244, 1-(1-cyclopropylethyl)-3-(4-(((2-methylisoindolin-5-yl)methyl)sulfonyl)phenyl)urea]
IC50 [1, 4]: 1280 nM
EC50 [2, 5]: 356 nM

O=C(NC(=O)c1cc(N2CCOCC2)ccc1Cl)Nc1ccc(S(=O)(=O)Cc2ccc3c(c2)CNC3)cc1 [H1249, 2-chloro-N-((4-((isoindolin-5-ylmethyl)sulfonyl)phenyl)carbamoyl)-5-morpholinobenzamide]
IC50 [1, 4]: 3290 nM
EC50 [2, 5]: 1630 nM

CCc1ccc(Cl)c(C(=O)NC(=O)Nc2ccc(S(=O)(=O)Cc3ccc(CO)cc3)cc2)c1 [H1255, 2-chloro-5-ethyl-N-((4-((4-(hydroxymethyl)benzyl)sulfonyl)phenyl)carbamoyl)benzamide]
EC50 [3]: > 30000 nM
IC50 [1, 6]: 2330 nM

CCc1ccc(Cl)c(C(=O)NC(=O)Nc2ccc(S(=O)(=O)Nc3ccc4c(c3)CNC4)cc2)c1 [H1259, 2-chloro-5-ethyl-N-((4-(N-(isoindolin-5-yl)sulfamoyl)phenyl)carbamoyl) benzamide]
EC50 [3]: > 30000 nM
IC50 [1, 6]: 272 nM

CC(NC(=O)Nc1ccc(S(=O)(=O)N2CC3CNCC3C2)cc1)c1ccccc1 (stereo not drawn) [H1277, 1-(4-((hexahydropyrrolo[3,4-c]pyrrol-2(1H)-yl)sulfonyl)phenyl)-3-(1-phenylethyl)urea]
EC50 [3]: > 30000 nM
IC50 [1, 6]: 8760 nM

CC(NC(=O)Nc1ccc(S(=O)(=O)Cc2ccncc2)cc1)c1ccccc1 (stereo not drawn) [H1280, 1-(1-phenylethyl)-3-(4-((pyridin-4-ylmethyl)sulfonyl)phenyl)urea]
EC50 [3]: > 30000 nM
IC50 [1, 6]: 905 nM

COc1ccc(C(C)NC(=O)Nc2ccc(S(=O)(=O)Cc3ccc4c(c3)CNC4)cc2)cc1Cl (stereo not drawn) [H1477, 1-(1-(3-chloro-4-methoxyphenyl)ethyl)-3-(4-((isoindolin-5-ylmethyl)sulfonyl)phenyl)urea]
IC50 [1, 7]: 36.9 nM
EC50 [2, 8]: 17.4 nM

CC(c1ccccc1)N(O)C(=O)Nc1ccc(S(=O)(=O)Cc2ccc3c(c2)CNC3)cc1 (stereo not drawn) [H1526, 1-hydroxy-3-(4-((isoindolin-5-ylmethyl)sulfonyl)phenyl)-1-(1-phenylethyl)urea]
IC50 [1, 7]: 31.9 nM
EC50 [2, 8]: 21.9 nM

CC(c1ccccc1)N(O)C(=O)Nc1ccc(S(=O)(=O)Cc2ccc3c(c2)CN(C)C3)cc1 (stereo not drawn) [H1527, 1-hydroxy-3-(4-(((2-methylisoindolin-5-yl)methyl)sulfonyl)phenyl)-1-(1-phenylethyl)urea]
IC50 [1, 7]: 130 nM
EC50 [2, 8]: 34 nM
